Tested on: 994946-033-R-J1-PDC complex spheroid viability
Test: Anticancer human tumor 994946-033-R-J1-PDC patient-derived melanoma cell line growth inhibition [POLQ]
Conditions: for IC50: curve of first compound; for viability, T/C: stronger effect = lower value
In short: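 PDC + HUVEC + MSC complex spheroids; POLQ inhibitors ± partner drugs; top conc. at/near clinical Cmax, else 10 microM (SN-38 1 microM), half-log dilutions; 37 degrees C, 5% CO2.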

[1] = second compound 0.0316 µM, first compound 0.00316 µM
[2] = second compound 0.0316 µM, first compound 0.01 µM
[3] = second compound 0.0316 µM, first compound 0.0316 µM
[4] = second compound 0.0316 µM, first compound 0.1 µM
[5] = second compound 0.0316 µM, first compound 0.316 µM
[6] = second compound 0.0316 µM, first compound 1 µM
[7] = second compound 0.1 µM, first compound 0.00316 µM
[8] = second compound 0.1 µM, first compound 0.01 µM
[9] = second compound 0.1 µM, first compound 0.0316 µM
[10] = second compound 0.1 µM, first compound 0.1 µM
[11] = second compound 0.1 µM, first compound 0.316 µM
[12] = second compound 0.1 µM, first compound 1 µM
[13] = second compound 0.316 µM, first compound 0.00316 µM
[14] = second compound 0.316 µM, first compound 0.01 µM
[15] = second compound 0.316 µM, first compound 0.0316 µM
[16] = second compound 0.316 µM, first compound 0.1 µM
[17] = second compound 0.316 µM, first compound 0.316 µM
[18] = second compound 0.316 µM, first compound 1 µM
[19] = second compound 1 µM, first compound 0.00316 µM
[20] = second compound 1 µM, first compound 0.01 µM
[21] = second compound 1 µM, first compound 0.0316 µM
[22] = second compound 1 µM, first compound 0.1 µM
[23] = second compound 1 µM, first compound 0.316 µM
[24] = second compound 1 µM, first compound 1 µM
[25] = second compound 3.16 µM, first compound 0.00316 µM
[26] = second compound 3.16 µM, first compound 0.01 µM
[27] = second compound 3.16 µM, first compound 0.0316 µM
[28] = second compound 3.16 µM, first compound 0.1 µM
[29] = second compound 3.16 µM, first compound 0.316 µM
[30] = second compound 3.16 µM, first compound 1 µM
[31] = second compound 10 µM, first compound 0.00316 µM
[32] = second compound 10 µM, first compound 0.01 µM
[33] = second compound 10 µM, first compound 0.0316 µM
[34] = second compound 10 µM, first compound 0.1 µM
[35] = second compound 10 µM, first compound 0.316 µM
[36] = second compound 10 µM, first compound 1 µM
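Note: spheroids exposed to drugs for 7 days.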
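Throughout, for viability, T/C: 100% = DMSO vehicle treated spheroids.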

Compound: C=CCn1c(=O)c2cnc(Nc3ccc(N4CCN(C)CC4)cc3)nc2n1-c1cccc(C(C)(C)O)n1 + Cc1cccc(N(C)C(=O)C2C(O)CCN2c2nc(C)cc(C(F)(F)F)c2C#N)c1
- IC50 (second compound 0.0316 µM): 625 nM
- IC50 (second compound 0.1 µM): > 1000 nM
- IC50 (second compound 0.316 µM): 489 nM
- IC50 (second compound 1 µM): 765 nM
- IC50 (second compound 3.16 µM): 871 nM
- IC50 (second compound 10 µM): 915 nM
- viability, T/C [1]: 94.9%
- viability, T/C [2]: 95.3%
- viability, T/C [3]: 132%
- viability, T/C [4]: 108%
- viability, T/C [5]: 73.3%
- viability, T/C [6]: 33.9%
- viability, T/C [7]: 66.7%
- viability, T/C [8]: 93.5%
- viability, T/C [9]: 103%
- viability, T/C [10]: 115%
- viability, T/C [11]: 73.5%
- viability, T/C [12]: 52.4%
- viability, T/C [13]: 80.4%
- viability, T/C [14]: 112%
- viability, T/C [15]: 83.5%
- viability, T/C [16]: 102%
- viability, T/C [17]: 60%
- viability, T/C [18]: 33.5%
- viability, T/C [19]: 111%
- viability, T/C [20]: 95.1%
- viability, T/C [21]: 117%
- viability, T/C [22]: 113%
- viability, T/C [23]: 84.3%
- viability, T/C [24]: 39.6%
- viability, T/C [25]: 116%
- viability, T/C [26]: 118%
- viability, T/C [27]: 111%
- viability, T/C [28]: 108%
- viability, T/C [29]: 111%
- viability, T/C [30]: 41.7%
- viability, T/C [31]: 123%
- viability, T/C [32]: 73.9%
- viability, T/C [33]: 81.3%
- viability, T/C [34]: 121%
- viability, T/C [35]: 80.5%
- viability, T/C [36]: 47.4%

Compound: CNCc1ccc(-c2[nH]c3cc(F)cc4c3c2CCNC4=O)cc1 + Cc1cccc(N(C)C(=O)C2C(O)CCN2c2nc(C)cc(C(F)(F)F)c2C#N)c1
- IC50 (second compound 0.0316 µM): > 10000 nM
- IC50 (second compound 0.1 µM): > 10000 nM
- IC50 (second compound 0.316 µM): > 10000 nM
- IC50 (second compound 1 µM): > 10000 nM
- IC50 (second compound 3.16 µM): > 10000 nM
- IC50 (second compound 10 µM): > 10000 nM
- viability, T/C [3]: 88.4%
- viability, T/C [4]: 103%
- viability, T/C [5]: 132%
- viability, T/C [6]: 77.5%
- viability, T/C (second compound 0.0316 µM, first compound 3.16 µM): 94.8%
- viability, T/C (second compound 0.0316 µM, first compound 10 µM): 78.8%
- viability, T/C [9]: 85.5%
- viability, T/C [10]: 117%
- viability, T/C [11]: 102%
- viability, T/C [12]: 81.4%
- viability, T/C (second compound 0.1 µM, first compound 3.16 µM): 92%
- viability, T/C (second compound 0.1 µM, first compound 10 µM): 92.7%
- viability, T/C [15]: 113%
- viability, T/C [16]: 115%
- viability, T/C [17]: 90.9%
- viability, T/C [18]: 78.8%
- viability, T/C (second compound 0.316 µM, first compound 3.16 µM): 92.8%
- viability, T/C (second compound 0.316 µM, first compound 10 µM): 106%
- viability, T/C [21]: 105%
- viability, T/C [22]: 101%
- viability, T/C [23]: 89.9%
- viability, T/C [24]: 73.1%
- viability, T/C (second compound 1 µM, first compound 3.16 µM): 112%
- viability, T/C (second compound 1 µM, first compound 10 µM): 104%
- viability, T/C [27]: 107%
- viability, T/C [28]: 90.5%
- viability, T/C [29]: 109%
- viability, T/C [30]: 100%
- viability, T/C (second compound 3.16 µM, first compound 3.16 µM): 109%
- viability, T/C (second compound 3.16 µM, first compound 10 µM): 89.4%
- viability, T/C [33]: 103%
- viability, T/C [34]: 79%
- viability, T/C [35]: 118%
- viability, T/C [36]: 91.2%
- viability, T/C (second compound 10 µM, first compound 3.16 µM): 86.8%
- viability, T/C (second compound 10 µM, first compound 10 µM): 83.2%

Compound: COc1cccc(OCCCN)c1-c1cc(Nc2cnc(C#N)cn2)n[nH]1 + Cc1cccc(N(C)C(=O)C2C(O)CCN2c2nc(C)cc(C(F)(F)F)c2C#N)c1
- IC50 (second compound 0.0316 µM): 25.6 nM
- IC50 (second compound 0.1 µM): 14.7 nM
- IC50 (second compound 0.316 µM): 17.7 nM
- IC50 (second compound 1 µM): 9.64 nM
- IC50 (second compound 3.16 µM): 14.3 nM
- IC50 (second compound 10 µM): 79.8 nM
- viability, T/C [1]: 96%
- viability, T/C [2]: 93.4%
- viability, T/C [3]: 40.3%
- viability, T/C [4]: 22.7%
- viability, T/C [5]: 22%
- viability, T/C [6]: 17.4%
- viability, T/C [7]: 99.8%
- viability, T/C [8]: 60.3%
- viability, T/C [9]: 29.9%
- viability, T/C [10]: 19%
- viability, T/C [11]: 19.1%
- viability, T/C [12]: 18.6%
- viability, T/C [13]: 76.6%
- viability, T/C [14]: 68.5%
- viability, T/C [15]: 31.3%
- viability, T/C [16]: 20.1%
- viability, T/C [17]: 24.2%
- viability, T/C [18]: 12.4%
- viability, T/C [19]: 120%
- viability, T/C [20]: 44.5%
- viability, T/C [21]: 36.8%
- viability, T/C [22]: 33.1%
- viability, T/C [23]: 27%
- viability, T/C [24]: 18.6%
- viability, T/C [25]: 88.9%
- viability, T/C [26]: 51%
- viability, T/C [27]: 46.8%
- viability, T/C [28]: 18.1%
- viability, T/C [29]: 28.9%
- viability, T/C [30]: 18.5%
- viability, T/C [31]: 68%
- viability, T/C [32]: 57.6%
- viability, T/C [33]: 86.7%
- viability, T/C [34]: 44.9%
- viability, T/C [35]: 38.2%
- viability, T/C [36]: 23.5%

Compound: Cn1ncnc1[C@H]1c2n[nH]c(=O)c3cc(F)cc(c23)N[C@@H]1c1ccc(F)cc1 + Cc1cccc(N(C)C(=O)C2C(O)CCN2c2nc(C)cc(C(F)(F)F)c2C#N)c1
- IC50 (second compound 0.0316 µM): > 100 nM
- IC50 (second compound 0.1 µM): > 100 nM
- IC50 (second compound 0.316 µM): > 100 nM
- IC50 (second compound 1 µM): > 100 nM
- IC50 (second compound 3.16 µM): > 100 nM
- IC50 (second compound 10 µM): > 100 nM
- viability, T/C (second compound 0.0316 µM, first compound 0.000316 µM): 105%
- viability, T/C (second compound 0.0316 µM, first compound 0.001 µM): 85.7%
- viability, T/C [1]: 86.8%
- viability, T/C [2]: 77.2%
- viability, T/C [3]: 87.7%
- viability, T/C [4]: 75.1%
- viability, T/C (second compound 0.1 µM, first compound 0.000316 µM): 81.5%
- viability, T/C (second compound 0.1 µM, first compound 0.001 µM): 107%
- viability, T/C [7]: 78.3%
- viability, T/C [8]: 87.8%
- viability, T/C [9]: 88.3%
- viability, T/C [10]: 64.2%
- viability, T/C (second compound 0.316 µM, first compound 0.000316 µM): 115%
- viability, T/C (second compound 0.316 µM, first compound 0.001 µM): 118%
- viability, T/C [13]: 77.8%
- viability, T/C [14]: 99.2%
- viability, T/C [15]: 74.8%
- viability, T/C [16]: 56%
- viability, T/C (second compound 1 µM, first compound 0.000316 µM): 134%
- viability, T/C (second compound 1 µM, first compound 0.001 µM): 91%
- viability, T/C [19]: 95.9%
- viability, T/C [20]: 80.2%
- viability, T/C [21]: 76.9%
- viability, T/C [22]: 66.9%
- viability, T/C (second compound 3.16 µM, first compound 0.000316 µM): 111%
- viability, T/C (second compound 3.16 µM, first compound 0.001 µM): 111%
- viability, T/C [25]: 98%
- viability, T/C [26]: 76%
- viability, T/C [27]: 87.3%
- viability, T/C [28]: 78.7%
- viability, T/C (second compound 10 µM, first compound 0.000316 µM): 109%
- viability, T/C (second compound 10 µM, first compound 0.001 µM): 65%
- viability, T/C [31]: 95.7%
- viability, T/C [32]: 106%
- viability, T/C [33]: 74.8%
- viability, T/C [34]: 69.3%
